Results as given in publication PMC10436550, “Subacute toxicity evaluations of LPM3480392 in rats, a full µ-opioid receptor biased agonist” (Frontiers in Pharmacology, 2023).

Test system: Sprague Dawley (SD) rats
Experiment: Clinical chemistry, 4-week subacute toxicity study
[1] = female rats, 0.6 mg/kg/day, End of dosing phase
[2] = female rats, 0.6 mg/kg/day, End of recovery phase
[3] = female rats, 1.2 mg/kg/day, End of dosing phase
[4] = female rats, 1.2 mg/kg/day, End of recovery phase
[5] = female rats, 2.4 mg/kg/day, End of dosing phase
[6] = female rats, 2.4 mg/kg/day, End of recovery phase
[7] = male rats, 0.6 mg/kg/day, End of dosing phase
[8] = male rats, 0.6 mg/kg/day, End of recovery phase
[9] = male rats, 1.2 mg/kg/day, End of dosing phase
[10] = male rats, 1.2 mg/kg/day, End of recovery phase
[11] = male rats, 2.4 mg/kg/day, End of dosing phase
[12] = male rats, 2.4 mg/kg/day, End of recovery phase

In the case of `Fc1ccc([C@]2(CCNCc3cccc(Cl)c3)CCO[C@]3(CCOC3)C2)nc1` [LPM3480392], the A/G [1] is reported as 3.25 ± 0.35, the ALB [1] is reported as 43.3 ± 2.6 g/L and the ALP [1] is reported as 87.4 ± 25.6 U/L. It also gave an ALT [1] of 24.9 ± 4.2 U/L, an AST [1] of 126.9 ± 16.0 U/L and a CREA [1] of 27.9 ± 2.4 µmol/L. The GLU [1] was 6.20 ± 0.43 mmol/L, the TBIL [1] was 1.0 ± 0.5 µmol/L and the TG [1] was 0.19 ± 0.05 mmol/L. The TP [1] was 56.7 ± 2.2 g/L, the A/G [2] was 2.68 ± 0.12 and the ALB [2] was 46.4 ± 2.4 g/L. The ALP [2] was 60.5 ± 13.8 U/L, the ALT [2] was 29.0 ± 6.6 U/L and the AST [2] was 103.0 ± 8.5 U/L. The CREA [2] was 36.2 ± 3.7 µmol/L, the GLU [2] was 7.01 ± 0.37 mmol/L and the TBIL [2] was 1.1 ± 0.5 µmol/L. It also gave a TG [2] of 0.28 ± 0.08 mmol/L, a TP [2] of 63.8 ± 2.6 g/L and an A/G [3] of 2.70 ± 0.42. For the same compound, the ALB [3] was 40.1 ± 2.0 g/L, the ALP [3] was 95.9 ± 26.3 U/L and the ALT [3] was 28.0 ± 8.0 U/L. The AST [3] was 122.5 ± 16.8 U/L, the CREA [3] was 29.4 ± 2.4 µmol/L and the GLU [3] was 6.44 ± 0.43 mmol/L. The TBIL [3] was 0.7 ± 0.2 µmol/L, the TG [3] was 0.19 ± 0.03 mmol/L and the TP [3] was 55.2 ± 2.1 g/L. For the same compound, the A/G [4] was 2.63 ± 0.37, the ALB [4] was 47.0 ± 3.5 g/L and the ALP [4] was 51.5 ± 17.8 U/L. It also gave an ALT [4] of 29.2 ± 2.7 U/L, an AST [4] of 95.9 ± 16.3 U/L and a CREA [4] of 35.2 ± 1.3 µmol/L. The GLU [4] was 6.80 ± 0.80 mmol/L, the TBIL [4] was 1.2 ± 0.3 µmol/L and the TG [4] was 0.27 ± 0.03 mmol/L. For the same compound, the TP [4] was 65.1 ± 4.0 g/L, the A/G [5] was 2.64 ± 0.37 and the ALB [5] was 39.9 ± 1.9 g/L. For the same compound, the ALP [5] was 124.1 ± 41.1 U/L, the ALT [5] was 28.7 ± 4.2 U/L and the AST [5] was 132.4 ± 15.4 U/L. It also gave a CREA [5] of 24.4 ± 1.5 µmol/L, a GLU [5] of 6.66 ± 0.45 mmol/L and a TBIL [5] of 0.7 ± 0.2 µmol/L. For the same compound, the TG [5] was 0.16 ± 0.03 mmol/L, the TP [5] was 55.2 ± 1.4 g/L and the A/G [6] was 2.55 ± 0.13. It also gave an ALB [6] of 45.5 ± 2.1 g/L, an ALP [6] of 59.2 ± 16.1 U/L and an ALT [6] of 34.0 ± 7.0 U/L. It also gave an AST [6] of 105.9 ± 15.9 U/L, a CREA [6] of 32.5 ± 3.1 µmol/L and a GLU [6] of 6.61 ± 0.24 mmol/L. It also gave a TBIL [6] of 0.9 ± 0.6 µmol/L, a TG [6] of 0.30 ± 0.06 mmol/L and a TP [6] of 63.4 ± 3.3 g/L. The “Increased AST and GLU and decreased CREA, magnitude” value (female rats, all LPM3480392 groups) was under 18%, the “Decreased ALB, magnitude” value (females, all LPM3480392 groups) was under 18% and the “Decreased TP, magnitude” value (females, all LPM3480392 groups) was under 18%. The A/G [7] was 3.02 ± 0.34, the ALB [7] was 39.8 ± 2.0 g/L and the GLU [7] was 5.90 ± 0.48 mmol/L. It also gave a TG [7] of 0.21 ± 0.06 mmol/L, a TP [7] of 53.0 ± 2.3 g/L and an A/G [8] of 2.10 ± 0.18. The ALB [8] was 37.4 ± 0.4 g/L, the GLU [8] was 7.26 ± 0.55 mmol/L and the TG [8] was 0.26 ± 0.16 mmol/L. It also gave a TP [8] of 55.2 ± 1.7 g/L, an A/G [9] of 3.03 ± 0.37 and an ALB [9] of 38.4 ± 2.0 g/L. For the same compound, the GLU [9] was 6.39 ± 0.32 mmol/L, the TG [9] was 0.19 ± 0.05 mmol/L and the TP [9] was 51.3 ± 2.3 g/L. The A/G [10] was 2.05 ± 0.08, the ALB [10] was 36.6 ± 0.8 g/L and the GLU [10] was 6.64 ± 0.99 mmol/L. It also gave a TG [10] of 0.33 ± 0.12 mmol/L, a TP [10] of 54.5 ± 0.6 g/L and an A/G [11] of 2.94 ± 0.30. It also gave an ALB [11] of 38.0 ± 1.6 g/L, a GLU [11] of 6.76 ± 0.56 mmol/L and a TG [11] of 0.17 ± 0.05 mmol/L. It also gave a TP [11] of 51.0 ± 1.4 g/L, an A/G [12] of 2.25 ± 0.27 and an ALB [12] of 37.7 ± 0.7 g/L. The GLU [12] was 6.53 ± 0.83 mmol/L, the TG [12] was 0.31 ± 0.12 mmol/L and the TP [12] was 54.6 ± 1.7 g/L. The “Decreased ALB, magnitude” value (males, all LPM3480392 groups) was under 10%, the “Decreased GLU, magnitude” value (males, all LPM3480392 groups) was under 20% and the “Decreased TG, magnitude” value (males, all LPM3480392 groups) was under 49%. The “Decreased TP, magnitude” value (males, all LPM3480392 groups) was under 10%.
